Test results: US9346798B2, “Dihydrobenzoxazine and tetrahydroquinoxaline sodium channel inhibitors” (AMGEN INC., priority 2012, dated 2016)

Key:
Type in all cases: cell-based
Nav 1.5 = Nav 1.5 (Homo sapiens (Human), UniProt Q14524); experiment: Nav 1.5 in vitro assay, IonWorks Quattro (IWQ) population patch-clamp; conditions: HEK 293 cells stably transfected with Nav 1.5; 26th pulse to -20 mV
Nav 1.7 [1] = target: T1, Nav 1.7 (Homo sapiens (Human), UniProt Q15858); experiment: Nav 1.7 in vitro assay, IonWorks Quattro (IWQ) population patch-clamp; conditions: HEK 293 cells stably transfected with Nav 1.7; 26th pulse to -20 mV
Nav 1.7 [2] = target: T1, Nav 1.7; experiment: Nav 1.7 in vitro PX assay, PatchXpress whole cell voltage clamp; conditions: HEK 293 cells stably transfected with human Nav1.7; for IC50: partially inactivated state (20 to 50% inactivation)
How it was run: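 HEK293 cells stably expressing human Nav1.7, whole-cell voltage clamp at a holding potential giving 20–50% inactivation; currents elicited by 20 msec pulses to −10 mV at 0.1 Hz.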

T1 sequence (Q15858 whole entry): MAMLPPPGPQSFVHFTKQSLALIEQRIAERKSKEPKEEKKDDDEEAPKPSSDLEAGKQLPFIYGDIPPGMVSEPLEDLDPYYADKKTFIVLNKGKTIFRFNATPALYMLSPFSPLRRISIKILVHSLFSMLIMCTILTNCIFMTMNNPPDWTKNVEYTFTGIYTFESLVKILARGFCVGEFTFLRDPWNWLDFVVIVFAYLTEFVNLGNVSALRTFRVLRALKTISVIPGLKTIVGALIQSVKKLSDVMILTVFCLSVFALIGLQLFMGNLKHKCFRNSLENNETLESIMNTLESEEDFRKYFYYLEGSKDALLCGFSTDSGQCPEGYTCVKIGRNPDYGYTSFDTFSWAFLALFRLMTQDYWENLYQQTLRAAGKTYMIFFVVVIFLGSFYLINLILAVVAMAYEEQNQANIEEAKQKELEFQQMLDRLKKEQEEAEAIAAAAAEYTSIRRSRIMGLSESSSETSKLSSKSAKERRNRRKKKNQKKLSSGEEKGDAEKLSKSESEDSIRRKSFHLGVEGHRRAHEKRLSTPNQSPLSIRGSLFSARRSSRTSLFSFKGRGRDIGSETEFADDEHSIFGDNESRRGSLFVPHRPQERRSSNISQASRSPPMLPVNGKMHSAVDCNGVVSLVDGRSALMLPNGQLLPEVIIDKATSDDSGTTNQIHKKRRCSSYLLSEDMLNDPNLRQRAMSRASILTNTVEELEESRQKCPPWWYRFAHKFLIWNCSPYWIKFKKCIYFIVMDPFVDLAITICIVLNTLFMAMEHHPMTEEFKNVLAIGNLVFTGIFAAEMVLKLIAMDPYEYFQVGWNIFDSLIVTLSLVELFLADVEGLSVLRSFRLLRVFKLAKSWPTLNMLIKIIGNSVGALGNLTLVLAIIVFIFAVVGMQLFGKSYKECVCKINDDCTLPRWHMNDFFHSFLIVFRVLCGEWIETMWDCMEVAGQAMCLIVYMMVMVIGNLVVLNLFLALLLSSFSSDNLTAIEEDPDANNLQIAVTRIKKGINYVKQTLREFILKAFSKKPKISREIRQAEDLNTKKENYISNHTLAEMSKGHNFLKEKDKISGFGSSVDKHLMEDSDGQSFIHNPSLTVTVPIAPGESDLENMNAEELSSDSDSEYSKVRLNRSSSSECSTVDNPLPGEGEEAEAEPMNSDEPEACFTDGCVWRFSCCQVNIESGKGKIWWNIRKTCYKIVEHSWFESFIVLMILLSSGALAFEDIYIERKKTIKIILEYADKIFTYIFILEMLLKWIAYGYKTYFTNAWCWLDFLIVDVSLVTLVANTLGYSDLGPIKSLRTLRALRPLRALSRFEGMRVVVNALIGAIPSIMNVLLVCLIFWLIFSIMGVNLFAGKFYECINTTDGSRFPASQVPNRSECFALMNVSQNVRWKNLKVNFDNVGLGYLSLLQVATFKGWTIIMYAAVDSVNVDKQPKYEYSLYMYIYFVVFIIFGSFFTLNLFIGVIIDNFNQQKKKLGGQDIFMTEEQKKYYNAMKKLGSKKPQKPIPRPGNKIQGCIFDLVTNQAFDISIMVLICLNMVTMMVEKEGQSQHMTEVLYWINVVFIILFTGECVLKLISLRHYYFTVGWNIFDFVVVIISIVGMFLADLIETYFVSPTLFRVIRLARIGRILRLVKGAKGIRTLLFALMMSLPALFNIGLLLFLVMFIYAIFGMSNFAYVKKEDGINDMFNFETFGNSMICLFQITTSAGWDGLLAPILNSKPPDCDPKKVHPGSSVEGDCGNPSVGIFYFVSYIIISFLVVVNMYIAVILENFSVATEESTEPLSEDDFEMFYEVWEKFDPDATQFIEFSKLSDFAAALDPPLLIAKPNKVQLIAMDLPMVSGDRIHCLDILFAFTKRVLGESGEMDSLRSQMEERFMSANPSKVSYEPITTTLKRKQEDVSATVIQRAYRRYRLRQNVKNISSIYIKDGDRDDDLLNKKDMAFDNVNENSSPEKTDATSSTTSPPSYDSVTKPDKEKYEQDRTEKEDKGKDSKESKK
Nav 1.5, sequence (Q14524 whole entry): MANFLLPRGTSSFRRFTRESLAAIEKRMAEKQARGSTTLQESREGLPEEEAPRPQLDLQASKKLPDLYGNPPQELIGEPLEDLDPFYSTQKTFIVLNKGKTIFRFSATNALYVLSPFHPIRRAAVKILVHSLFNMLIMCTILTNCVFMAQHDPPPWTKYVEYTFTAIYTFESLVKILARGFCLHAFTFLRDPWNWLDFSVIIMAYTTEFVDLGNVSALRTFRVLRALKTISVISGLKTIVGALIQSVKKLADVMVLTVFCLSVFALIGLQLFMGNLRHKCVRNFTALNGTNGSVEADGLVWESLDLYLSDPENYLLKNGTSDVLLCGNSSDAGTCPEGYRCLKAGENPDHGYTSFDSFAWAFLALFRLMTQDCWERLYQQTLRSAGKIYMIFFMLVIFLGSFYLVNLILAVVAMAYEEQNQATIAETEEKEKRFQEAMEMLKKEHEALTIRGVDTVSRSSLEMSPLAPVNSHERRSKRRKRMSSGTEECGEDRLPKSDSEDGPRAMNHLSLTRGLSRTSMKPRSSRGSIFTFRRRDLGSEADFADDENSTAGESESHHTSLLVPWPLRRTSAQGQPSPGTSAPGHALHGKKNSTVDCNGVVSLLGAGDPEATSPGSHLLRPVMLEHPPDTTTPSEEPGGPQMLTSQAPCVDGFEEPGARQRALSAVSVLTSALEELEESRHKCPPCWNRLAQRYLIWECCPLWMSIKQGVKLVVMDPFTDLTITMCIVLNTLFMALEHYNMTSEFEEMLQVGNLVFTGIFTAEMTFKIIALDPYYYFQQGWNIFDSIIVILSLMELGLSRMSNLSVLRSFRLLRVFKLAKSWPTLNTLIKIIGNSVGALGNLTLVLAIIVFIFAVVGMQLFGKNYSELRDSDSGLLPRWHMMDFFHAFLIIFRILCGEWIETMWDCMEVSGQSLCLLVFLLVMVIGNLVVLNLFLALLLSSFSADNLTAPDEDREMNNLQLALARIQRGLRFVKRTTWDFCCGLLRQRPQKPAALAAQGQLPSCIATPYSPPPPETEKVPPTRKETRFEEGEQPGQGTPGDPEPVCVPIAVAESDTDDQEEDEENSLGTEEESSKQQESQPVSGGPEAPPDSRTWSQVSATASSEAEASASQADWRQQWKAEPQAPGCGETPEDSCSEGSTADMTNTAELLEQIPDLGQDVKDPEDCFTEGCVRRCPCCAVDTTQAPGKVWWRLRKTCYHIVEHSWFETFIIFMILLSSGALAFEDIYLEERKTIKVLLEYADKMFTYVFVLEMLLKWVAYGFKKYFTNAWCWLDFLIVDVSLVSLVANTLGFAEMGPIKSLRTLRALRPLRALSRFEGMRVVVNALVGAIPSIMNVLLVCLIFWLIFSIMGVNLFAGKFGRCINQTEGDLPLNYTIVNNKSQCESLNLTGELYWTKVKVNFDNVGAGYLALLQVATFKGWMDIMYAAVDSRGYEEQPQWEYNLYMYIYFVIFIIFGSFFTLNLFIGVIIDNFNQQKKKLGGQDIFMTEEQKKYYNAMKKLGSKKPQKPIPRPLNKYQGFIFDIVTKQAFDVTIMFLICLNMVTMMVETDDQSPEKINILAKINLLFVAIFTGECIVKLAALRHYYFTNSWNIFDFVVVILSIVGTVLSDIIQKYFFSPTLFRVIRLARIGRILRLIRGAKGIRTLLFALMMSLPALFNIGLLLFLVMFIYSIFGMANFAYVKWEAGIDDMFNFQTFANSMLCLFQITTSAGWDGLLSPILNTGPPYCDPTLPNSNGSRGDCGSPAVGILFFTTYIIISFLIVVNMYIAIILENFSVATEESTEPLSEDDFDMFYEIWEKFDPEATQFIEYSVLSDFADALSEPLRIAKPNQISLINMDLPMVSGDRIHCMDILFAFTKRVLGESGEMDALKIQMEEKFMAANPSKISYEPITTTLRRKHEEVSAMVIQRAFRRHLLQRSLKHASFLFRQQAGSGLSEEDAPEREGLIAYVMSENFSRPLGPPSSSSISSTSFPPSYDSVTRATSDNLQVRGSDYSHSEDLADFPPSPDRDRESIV

IC50 (Nav 1.7 [1])	IC50 (Nav 1.7 [2])	SMILES	IC50 (Nav 1.5)	inhibition at 4.9 µM (Nav 1.7 [2]; HEK293, values marked *, 4.9 μM, read-out: Nav 1.7 PX percent inhibition at 4.9 μM)
70.5 nM	293 nM	C[C@@H]1CN(c2ccc(C(F)(F)F)cc2C#N)c2ccc(S(=O)(=O)Nc3nccs3)cc2O1 (single isomer, unassigned) [Example 95]	6.67 µM	–
891 nM	2720 nM	O=S(=O)(Nc1nccs1)c1ccc2c(c1)OCCN2c1ccc(OCC(F)(F)F)cc1 [Example 113, N-(thiazol-2-yl)-4-(4-(2,2,2-trifluoroethoxy)phenyl)-3,4-dihydro-2H-benzo[b][1,4]oxazine-7-sulfonamide]	3.37 µM	–
418 nM	1070 nM	[N-]=[N+]=Nc1ccc(N2CCOc3cc(S(=O)(=O)Nc4nccs4)ccc32)c(Br)c1 [Example 64, 4-(4-Azido-2-Bromophenyl)-N-(Thiazol-2-Yl)-3,4-Dihydro-2H-Benzo[B][1,4]Oxazine-7-Sulfonamide 2,2,2-Trifluoroacetate]	> 10 µM	–
1860 nM	11900 nM	O=S(=O)(Nc1ncccn1)c1ccc2c(c1)OCCN2c1ccc(C(F)(F)F)cc1Cl [Example 16, 4-(2-Chloro-4-(Trifluoromethyl)Phenyl)-N-(Pyrimidin-2-Yl)-3,4-Dihydro-2H-Benzo[B][1,4]Oxazine-7-Sulfonamide]	> 10 µM	–
679 nM	2430 nM	O=S(=O)(Nc1cscn1)c1ccc2c(c1)OCCN2c1ccc(C(F)(F)F)cc1Br [Example 61, 4-(2-Bromo-4-(Trifluoromethyl)Phenyl)-N-(Thiazol-4-Yl)-3,4-Dihydro-2H-Benzo[B][1,4]Oxazine-7-Sulfonamide]	> 10 µM	–
5.5 nM	229 nM	O=S(=O)(Nc1nccs1)c1ccc2c(c1)OCCN2c1ccc(C(F)(F)F)cc1CCO [Example 211, 4-(2-(2-Hydroxyethyl)-4-(Trifluoromethyl)Phenyl)-N-(Thiazol-2-Yl)-3,4-Dihydro-2H-Benzo[B][1,4]Oxazine-7-Sulfonamide]	0.471 µM	–
87.5 nM	469 nM	CCc1ccc(N2CCOc3cc(S(=O)(=O)Nc4nccs4)ccc32)c(C#N)c1 [Example 203, 4-(2-Cyano-4-Ethylphenyl)-N-(Thiazol-2-Yl)-3,4-Dihydro-2H-Benzo[B][1,4]Oxazine-7-Sulfonamide]	1.09 µM	–
160 nM	2690 nM	Cc1cc(C#N)cc(N2CCOc3cc(S(=O)(=O)Nc4nccs4)ccc32)c1 [Example 124, 4-(3-Cyano-5-methylphenyl)-N-(thiazol-2-yl)-3,4-dihydro-2H-benzo[b][1,4]oxazine-7-sulfonamide]	2.33 µM	–
17 nM	192 nM	COc1cc(F)ccc1N1CCOc2cc(S(=O)(=O)Nc3nccs3)ccc21 [Example 150, 4-(4-Fluoro-2-methoxyphenyl)-N-(thiazol-2-yl)-3,4-dihydro-2H-benzo[b][1,4]oxazine-7-sulfonamide]	5.58 µM	–
367 nM	3630 nM	CC[C@H]1CN(c2ccc(C(F)(F)F)cc2C#N)c2ccc(S(=O)(=O)Nc3nccs3)cc2O1 (single isomer, unassigned) [Example 101]	8.5 µM	–
11.5 nM	67.6 nM	COc1cc(Cl)ccc1N1CCOc2cc(S(=O)(=O)Nc3nccs3)ccc21 [Example 186, 4-(4-Chloro-2-Methoxyphenyl)-N-(Thiazol-2-Yl)-3,4-Dihydro-2H-Benzo[B][1,4]Oxazine-7-Sulfonamide]	7.72 µM	–
401 nM	2620 nM	O=S(=O)(Nc1nccs1)c1ccc2c(c1)OCCN2c1ccc(Cl)cc1F [Example 170, 4-(4-Chloro-2-Fluorophenyl)-N-(Thiazol-2-Yl)-3,4-Dihydro-2H-Benzo[B][1,4]Oxazine-7-Sulfonamide 2,2,2-Trifluoroacetate]	> 10 µM	–
111 nM	640 nM	O=S(=O)(Nc1nccs1)c1ccc2c(c1)OCCN2c1cccc(Cl)c1 [Example 41, 4-(3-Chlorophenyl)-N-(Thiazol-2-Yl)-3,4-Dihydro-2H-Benzo[B][1,4]Oxazine-7-Sulfonamide]	4.93 µM	–
469 nM	387 nM	N#Cc1cc(-c2ccc(F)cc2)ccc1N1CCOc2cc(S(=O)(=O)Nc3nccs3)ccc21 [Example 199, 4-(3-Cyano-4′-Fluoro-[1,1′-Biphenyl]-4-Yl)-N-(Thiazol-2-Yl)-3,4-Dihydro-2H-Benzo[B][1,4]Oxazine-7-Sulfonamide]	1.22 µM	–
28.5 nM	309 nM	COc1cc(C#N)ccc1N1C[C@H](C)Oc2cc(S(=O)(=O)Nc3nccs3)ccc21 (single isomer, unassigned) [Example 107]	> 10 µM	–
154 nM	1930 nM	N#Cc1ccccc1N1CCOc2cc(S(=O)(=O)Nc3ncns3)ccc21 [Example 57, 4-(2-Cyanophenyl)-N-(1,2,4-Thiadiazol-5-Yl)-3,4-Dihydro-2H-Benzo[B][1,4]Oxazine-7-Sulfonamide]	6.7 µM	–
416 nM	4730 nM	Cc1cc(OC(F)F)cnc1N1CCOc2cc(S(=O)(=O)Nc3nccs3)ccc21 [Example 146, 4-(5-(Difluoromethoxy)-3-methylpyridin-2-yl)-N-(thiazol-2-yl)-3,4-dihydro-2H-benzo[b][1,4]oxazine-7-sulfonamide]	5.22 µM	–
1240 nM	14200 nM	O=S(=O)(Nc1nccs1)c1ccc2c(c1)OCCN2c1ccc(C(F)(F)F)c(Cl)c1 [Example 126, 4-(3-Chloro-4-(trifluoromethyl)phenyl)-N-(thiazol-2-yl)-3,4-dihydro-2H-benzo[b][1,4]oxazine-7-sulfonamide]	> 10 µM	–
996 nM	3430 nM	C[C@H]1COc2cc(S(=O)(=O)Nc3nccs3)ccc2N1c1ccc(C(F)(F)F)cc1C#N (single isomer, unassigned) [Example 98]	> 10 µM	–
679 nM	5790 nM	CCC1CN(c2ccc(C(F)(F)F)cc2C#N)c2ccc(S(=O)(=O)Nc3nccs3)cc2O1 (racemic) [Example 100, 4-(2-Cyano-4-(Trifluoromethyl)Phenyl)-2-Ethyl-N-(Thiazol-2-Yl)-3,4-Dihydro-2H-Benzo[B][1,4]Oxazine-7-Sulfonamide]	> 10 µM	–

SMILES	IC50 (Nav 1.7 [1])	IC50 (Nav 1.7 [2])	IC50 (Nav 1.5)	inhibition at 4.9 µM (Nav 1.7 [2]; HEK293, values marked *, 4.9 μM, read-out: Nav 1.7 PX percent inhibition at 4.9 μM)
O=S(=O)(Nc1nccs1)c1ccc2c(c1)OCCN2c1ccc(C(F)(F)F)cc1CC(O)CO (racemic) [Example 207, 4-(2-(2,3-Dihydroxypropyl)-4-(Trifluoromethyl)Phenyl)-N-(Thiazol-2-Yl)-3,4-Dihydro-2H-Benzo[B][1,4]Oxazine-7-Sulfonamide]	25 nM	86.7 nM	3.11 µM	–
O=C(Oc1ccc([N+](=O)[O-])cc1)N1CCOc2cc(S(=O)(=O)Nc3nccs3)ccc21 [Example 197, 4-nitrophenyl 7-(N-(thiazol-2-yl)sulfamoyl)-2H-benzo[b][1,4]oxazine-4(3 H)-carboxylate]	2530 nM	–	> 10 µM	27.8%
O=S(=O)(Nc1nccs1)c1ccc2c(c1)OCCN2c1ccc(C(F)(F)F)cc1C(O)CO (stereo not drawn) [Example 204, 4-(2-(1,2-dihydroxyethyl)-4-(trifluoromethyl)phenyl)-N-(thiazol-2-yl)-3,4-dihydro-2H-benzo[b][1,4]oxazine-7-sulfonamide]	47.5 nM	343 nM	0.637 µM	–
